# Molecular target: fully phosphorylated, mouse aERK2 enzyme (Mus musculus (Mouse), UniProt P63085)
# Assay: Active ERK2 (aERK) IMAP-FP assay, condition 2
# Type: biochemical
# Settings: aERK assay condition 2, 30 uM ATP; read-out: aERK IC50
# Protocol: Active ERK2 (aERK) Assay: (Unless Indicated Otherwise, the Data Provided for aERK was obtained using Condition 1)
# Activated ERK2 activity was determined in an IMAP-FP assay (Molecular Devices). […] Phosphorylation reactions were allowed to proceed for 40-45 minutes and were immediately quenched by the addition of 60 μL IMAP detection beads (1:1000 dilutions) in IMAP binding buffer. Plates were read on EnVision reader after 30 minutes binding equilibration.
# Sequence of fully phosphorylated, mouse aERK2 enzyme (P63085 whole entry): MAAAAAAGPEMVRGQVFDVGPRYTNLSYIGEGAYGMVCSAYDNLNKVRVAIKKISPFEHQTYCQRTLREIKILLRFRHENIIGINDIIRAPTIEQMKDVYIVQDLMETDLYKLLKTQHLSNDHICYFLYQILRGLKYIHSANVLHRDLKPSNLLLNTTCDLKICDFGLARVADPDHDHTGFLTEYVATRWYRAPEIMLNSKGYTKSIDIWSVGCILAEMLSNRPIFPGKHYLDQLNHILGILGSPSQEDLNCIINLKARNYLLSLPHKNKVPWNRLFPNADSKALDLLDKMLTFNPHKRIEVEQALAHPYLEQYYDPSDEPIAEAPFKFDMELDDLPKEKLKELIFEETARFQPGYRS
row,IC50 [nM],Structure (SMILES)
1,4.7,"COc1cccc(F)c1CN1C[C@H](NC(=O)c2ccc3[nH]nc(-c4ccnc(C)c4)c3c2)CC[C@H]1C(=O)NC1(C)CC1 [N-{(3R,6S)-1-(2-fluoro-6-methoxybenzyl)-6-[(1-methylcyclopropyl)carbamoyl]piperidin-3-yl}-3-(2-methylpyridin-4-yl)-1H-indazole-5-carboxamide]"
2,72.2,"NC(=O)C(c1ccccc1F)N1CCC[C@@H](NC(=O)c2ccc3[nH]nc(-c4ccncc4)c3c2)C1 (single isomer, unassigned) [N-((R)-1-((R or S)-2-amino-1-(2-fluorophenyl)-2-oxoethyl)-piperidin-3-yl)-3-(pyridin-4-yl)-1H-indazole-5-carboxamide]"
3,35.3,"NC(=O)C(c1c(F)cccc1F)N1CCC[C@@H](NC(=O)c2ccc3[nH]nc(-c4ccncc4)c3c2)C1 (single isomer, unassigned) [drawing 504, N-((R)-1-((S or R)-2-amino-1-(2,6-difluorophenyl)-2-oxoethyl)piperidin-3-yl)-3-(pyridin-4-yl)-1H-indazole-5-carboxamide]"
4,416,"CN(C)C(=O)C(c1c(F)cccc1F)N1CCC[C@@H](NC(=O)c2ccc3[nH]nc(-c4ccncc4)c3c2)C1 (single isomer, unassigned) [drawing 507, N-((R)-1-((R or S)-1-(2,6-difluorophenyl)-2-(dimethyl-amino)-2-oxoethyl)piperidin-3-yl)-3-(pyridin-4-yl)-1H-indazole-5-carboxamide]"
5,50.2,"COc1ccnc(NC(=O)[C@@H]2CC[C@@H](NC(=O)c3ccc4[nH]nc(-c5ccnc(C)c5)c4c3)CN2Cc2c(F)cccc2OC)c1 [N-{(3R,6S)-1-(2-fluoro-6-methoxybenzyl)-6-[(4-methoxypyridin-2-yl)carbamoyl]piperidin-3-yl}-3-(2-methylpyridin-4-yl)-1H-indazole-5-carboxamide]"
6,23.4,"COc1cccc(F)c1CN1C[C@H](NC(=O)c2ccc3[nH]nc(-c4ccnc(C)c4)c3c2)CC[C@H]1C(=O)Nc1ccc(F)cc1 [N-{(3R,6S)-1-(2-fluoro-6-methoxybenzyl)-6-[(4-fluorophenyl)carbamoyl]piperidin-3-yl}-3-(2-methylpyridin-4-yl)-1H-indazole-5-carboxamide]"
7,26.4,"CN(C)C(=O)C(c1ccccc1F)N1CCC[C@@H](NC(=O)c2ccc3[nH]nc(-c4ccncc4)c3c2)C1 (single isomer, unassigned) [N-((R)-1-((R or S)-2-(dimethylamino)-1-(2-fluorophenyl)-2-oxoethyl)piperidin-3-yl)-3-(pyridin-4-yl)-1H-indazole-5-carboxamide]"
8,14,"COc1cccc(F)c1CN1C[C@H](NC(=O)c2ccc3[nH]nc(-c4ccnc(C)c4)c3c2)CC[C@H]1C(=O)Nc1nccs1 [N-[(3R,6S)-1-(2-fluoro-6-methoxybenzyl)-6-(1,3-thiazol-2-ylcarbamoyl)piperidin-3-yl]-3-(2-methylpyridin-4-yl)-1H-indazole-5-carboxamide]"
9,6.7,"COc1cccc(F)c1CN1C[C@H](NC(=O)c2ccc3[nH]nc(-c4ccnc(C)c4)c3c2)CC[C@H]1C(=O)Nc1ccc(C)nc1 [N-{(3R,6S)-1-(2-fluoro-6-methoxybenzyl)-6-[(6-methylpyridin-3-yl)carbamoyl]piperidin-3-yl}-3-(2-methylpyridin-4-yl)-1H-indazole-5-carboxamide]"

# Same assay, conditions: active ERK2; read-out: aErk2 Ic50
row,IC50 [nM],Structure (SMILES)
1,16.4,"CCNC(=O)N1CCN(C(=O)[C@@H]2CC[C@@H](NC(=O)c3ccc4[nH]nc(-c5ccnc(C)c5)c4c3)CN2Cc2c(F)cccc2OC)CC1 [N-[(3R,6S)-6-{[4-(ethylcarbamoyl)piperazin-1-yl]carbonyl}-1-(2-fluoro-6-methoxy-benzyl)piperidin-3-yl]-3-(2-methylpyridin-4-yl)-1H-indazole-5-carboxamide]"
2,7,"COc1cccc(F)c1CN1C[C@H](NC(=O)c2ccc3[nH]nc(-c4ccnc(C)c4)c3c2)CC[C@H]1C(=O)N1CCN(C(=O)OC(C)(C)C)CC1 [tert-butyl 4-{[(2S,5R)-1-(2-fluoro-6-methoxy-benzyl)-5-({[3-(2-methylpyridin-4-yl)-1H-indazol-5-yl]carbonyl}amino)piperidin-2-yl]carbonyl}piperazine-1-carboxylate]"
3,46.5,"COc1cccc(F)c1CN1C[C@H](NC(=O)c2ccc3[nH]nc(-c4ccnc(C)c4)c3c2)CC[C@H]1C(=O)NC(C)C [N-{(3R,6S)-1-(2-fluoro-6-methoxybenzyl)-6-[(1-methylethyl)carbamoyl]piperidin-3-yl}-3-(2-methylpyridin-4-yl)-1H-indazole-5-carboxamide]"
4,18.8,"COc1cccc(F)c1CN1C[C@H](NC(=O)c2ccc3[nH]nc(-c4ccnc(C)c4)c3c2)CC[C@H]1C(=O)N1CCN(C(=O)OC2CCOCC2)CC1 [tetrahydro-2H-pyran-4-yl 4-{[(2S,5R)-1-(2-fluoro-6-methoxybenzyl)-5-({[3-(2-methylpyridin-4-yl)-1H-indazol-5-yl]carbonyl}amino)piperidin-2-yl]carbonyl}piperazine-1-carboxylate]"
5,31,"COc1cccc(F)c1CN1C[C@H](NC(=O)c2ccc3[nH]nc(-c4ccnc(C)c4)c3c2)CC[C@H]1C(=O)N1CCN(C(=O)OC2CCCC2)CC1 [cyclopentyl 4-{[(2S,5R)-1-(2-fluoro-6-methoxybenzyl)-5-({[3-(2-methylpyridin-4-yl)-1H-indazol-5-yl]carbonyl}amino)piperidin-2-yl]carbonyl}piperazine-1-carboxylate]"
6,19.1,"COc1cccc(F)c1CN1C[C@H](NC(=O)c2ccc3[nH]nc(-c4ccnc(C)c4)c3c2)CC[C@H]1C(=O)N1CCN(C(C)=O)CC1 [N-[(3R,6S)-6-[(4-acetylpiperazin-1-yl)carbonyl]-1-(2-fluoro-6-methoxybenzyl)-piperidin-3-yl]-3-(2-methylpyridin-4-yl)-1H-indazole-5-carboxamide]"
7,11.2,"COc1cccc(F)c1CN1C[C@H](NC(=O)c2ccc3[nH]nc(-c4ccnc(C)c4)c3c2)CC[C@H]1C(=O)N(C)OC [N-{(3R,6S)-1-(2-fluoro-6-methoxybenzyl)-6-[methoxy(methyl)carbamoyl]piperidin-3-yl}-3-(2-methylpyridin-4-yl)-1H-indazole-5-carboxamide]"

# Continued, molecule first:
row,Structure (SMILES),IC50 [nM]
1,"Cc1cc(-c2n[nH]c3ccc(C(=O)N[C@@H]4CC[C@@H](C(=O)N(C)C)N(Cc5ccccc5F)C4)cc23)ccn1 [N-[(3R,6S)-6-(dimethylcarbamoyl)-1-(2-fluorobenzyl)piperidin-3-yl]-3-(2-methylpyridin-4-yl)-1H-indazole-5-carboxamide]",39.4
2,"CCN(CC)C(=O)[C@@H]1CC[C@@H](NC(=O)c2ccc3[nH]nc(-c4ccncc4)c3c2)CN1Cc1c(F)cccc1OC [N-[(3R,6S)-6-(diethylcarbamoyl)-1-(2-fluoro-6-methoxybenzyl)piperidin-3-yl]-3-pyridin-4-yl-1H-indazole-5-carboxamide]",18.4
3,"COc1cccc(F)c1CN1C[C@H](NC(=O)c2ccc3[nH]nc(-c4ccc5nc(C)sc5c4)c3c2)CC[C@H]1C(N)=O [N-[(3R,6S)-6-carbamoyl-1-(2-fluoro-6-methoxybenzyl)piperidin-3-yl]-3-(2-methyl-1,3-benzothiazaol-6-yl)-1H-indazole-5-carboxamide]",3.6
4,"Cc1cc(-c2n[nH]c3ccc(C(=O)N[C@@H]4CC[C@@H](C(=O)N5CC(F)(F)C5)N(CCc5ccccc5)C4)cc23)ccn1 [N-[(3R,6S)-6-[(3,3-difluoroazetidin-1-yl)carbonyl]-1-(2-phenylethyl)piperidin-3-yl]-3-(2-methylpyridin-4-yl)-1H-indazole-5-carboxamide]",232
5,"COc1cccc(F)c1CN1C[C@H](NC(=O)c2ccc3[nH]nc(-c4ccnc(C)c4)c3c2)CC[C@H]1C(=O)NCCOCc1ccccc1 [N-[(3R,6S)-6-{[2-(benzyloxy)ethyl]-carbamoyl}-1-(2-fluoro-6-methoxybenzyl)-piperidin-3-yl]-3-(2-methylpyridin-4-yl)-1H-indazole-5-carboxamide]",121
6,"CNC(=O)[C@@H]1CC[C@@H](NC(=O)c2ccc3[nH]nc(-c4ccncc4)c3c2)CN1Cc1c(F)cccc1OC [N-[(3R,6S)-1-(2-fluoro-6-methoxybenzyl)-6-(methylcarbamoyl)piperidin-3-yl]-3-pyridin-4-yl-1H-indazole-5-carboxamide]",3.2
7,COc1cccc(F)c1CN1C[C@H](NC(=O)c2ccc3[nH]nc(-c4ccc5nn(C)cc5c4)c3c2)CC[C@H]1C(=O)Nc1nccs1,113
8,"Cc1cc(-c2n[nH]c3ccc(C(=O)N[C@@H]4CC[C@@H](C(=O)Nc5nccs5)N(CCc5ccccc5)C4)cc23)ccn1 [3-(2-methylpyridin-4-yl)-N-[(3R,6S)-1-(2-phenylethyl)-6-(1,3-thiazol-2-ylcarbamoyl)-piperidin-3-yl)-1H-indazole-5-carboxamide]",133
9,"CCN(CC)C(=O)[C@@H]1CC[C@@H](NC(=O)c2ccc3[nH]nc(-c4ccnc(C)c4)c3c2)CN1Cc1ccccc1F [N-[(3R,6S)-6-(diethylcarbamoyl)-1-(2-fluorobenzyl)piperidin-3-yl]-3-(2-methylpyridin-4-yl)-1H-indazole-5-carboxamide]",20.1
10,"CCN(CC)C(=O)[C@@H]1CC[C@@H](NC(=O)c2ccc3[nH]nc(-c4ccnc(C)c4)c3c2)CN1Cc1c(F)cccc1F [N-[(3R,6S)-6-(diethylcarbamoyl)-1-(2,6-difluorobenzyl)piperidin-3-yl]-3-(2-methylpyridin-4-yl)-1H-indazole-5-carboxamide]",80.7
11,"CCN(CC)C(=O)[C@@H]1CC[C@@H](NC(=O)c2ccc3[nH]nc(-c4ccc5nc(C)sc5c4)c3c2)CN1Cc1c(F)cccc1OC [N-[(3R,6S)-6-(diethylcarbamoyl)-1-(2-fluoro-6-methoxybenzyl)piperidin-3-yl]-3-(2-methyl-1,3-benzothiazol-6-yl)-1H-indazole-5-carboxamide]",32.9

# Reference: US8999957B2, “Heterocyclic compounds as ERK inhibitors” (Merck Sharp & Dohme Corp., priority 2010, dated 2015)
